Measurements reported in PMC13242511, “Disrupting Notch signalling by a small molecule inhibiting dihydroorotate dehydrogenase activity” (Scientific Reports, 2026).

Legend:
Assay type in all cases: cell-based
γ-secretase complex = γ-secretase complex (Homo sapiens, UniProt P49768); test: APP-C99 counter assay (GSI reporter assay); conditions: for 3p-DR in % of DMSO counter: APP-C99 counter assay
Outline: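 γ-secretase activity reported via APP cleavage driving firefly luciferase, normalized to renilla. After 24 h transfection then 24 h compound exposure, signals were read (0.1 s integration). Triplicate dose–responses fitted by variable-slope four-parameter model for IC50; area under curve also derived.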

Notch signalling [1] = test: Notch reporter assay (12xCSL firefly luciferase / renilla luciferase, HEK293T Notch1ΔE reporter cell line clone #A1-11); set-up: Confirmation screen: unit not given here; conditions: for inhibitor ratio in % of DMSO in 3 point DR: 3-point DR confirmation screen, Notch reporter assay
Outline: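 Compounds at two-fold concentration in 10 µl medium were brought to one-fold by adding 10 µl holding 4000 Notch reporter cells (clone #A1-11) per well of a 384-well plate. After 24 h, Promega dual-GLO firefly and renilla luciferase were read on a SpectraMaxi3. Dose-response curves were fitted with a log(inhibitor) vs. response variable-slope model.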

Notch signalling [2] = test: as above; conditions: 24 h, unit from Fig. 2 legend
[3] = 10 µM, sheet conf vs counter 10 µM
[4] = 25 µM, sheet "conf vs counter 25 µM", same values given as % of DMSO in sheet "3p-DR in % of DMSO counter"
[5] = 10 µM, sheet conf vs counter 10 µM, same values as 3-point DR confirmation screen
[6] = 25 µM, Notch reporter 3-point dose-confirmation assay, sheet "conf vs counter 25 µM"

Row | Compound | 3p-DR in % of DMSO counter (γ-secretase complex; 10µM) | Counter screen (Hek APP-C99) (γ-secretase complex; [3]) | 3p-DR in % of DMSO counter (γ-secretase complex; 25µM) | Counter screen (Hek APP-C99) (γ-secretase complex; [4]) | 3p-DR in % of DMSO counter (γ-secretase complex; 1,25µM) | inhibitor ratio in % of DMSO in 3 point DR (Notch signalling [1]; 10µM) | Confirmation screen (Notch signalling [1]; [5]) | inhibitor ratio in % of DMSO in 3 point DR (Notch signalling [1]; 25µM) | Confirmation screen (Notch signalling [1]; [6]) | inhibitor ratio in % of DMSO in 3 point DR (Notch signalling [1]; 1,25µM) | Primary screen at 10 µM (Notch reporter signal) (Notch signalling [2])
1 | COc1ccc2cc(C(=O)N3CCC(c4ccncc4)CC3)[nH]c2c1 [CBK283799] | 49.5 % of DMSO | 49.5 | 70.8 % of DMSO | 70.8 | 72.9 % of DMSO | 56.5 % of DMSO | 56.5 | 73.6 % of DMSO | 73.6 | 82.5 % of DMSO | 60.5 % of DMSO
2 | Fc1cc(CN2CCC3(CC2)OCCc2c3[nH]c3ccc(Br)cc23)cc(F)c1F [CBK039943] | 118.1 % of DMSO | 118.1 | 117.4 % of DMSO | 117.4 | 92.8 % of DMSO | 83.6 % of DMSO | 83.6 | 75.1 % of DMSO | 75.1 | 111.8 % of DMSO | 63.6 % of DMSO
3 | COc1cccc(OCC2CCCN(C(=O)CCc3cnn(C)c3)C2)c1 (centres unmarked) [CBK306931] | 59.0 % of DMSO | 59.0 | 46.1 % of DMSO | 46.1 | 61.2 % of DMSO | 57.0 % of DMSO | 57.0 | 34.9 % of DMSO | 34.9 | 63.9 % of DMSO | 46.7 % of DMSO
4 | c1ccc2oc(CN3Cc4nc[nH]c4C[C@H]3c3nc(-c4ccc5c(c4)OCO5)no3)cc2c1 [CBK288998] | 93.1 % of DMSO | 93.1 | 78.1 % of DMSO | 78.1 | 112.2 % of DMSO | 72.8 % of DMSO | 72.8 | 66.3 % of DMSO | 66.3 | 89.6 % of DMSO | 68.4 % of DMSO

Second part, led by results:

Row | 3p-DR in % of DMSO counter (γ-secretase complex; 10µM) | Counter screen (Hek APP-C99) (γ-secretase complex; [3]) | 3p-DR in % of DMSO counter (γ-secretase complex; 25µM) | Counter screen (Hek APP-C99) (γ-secretase complex; [4]) | 3p-DR in % of DMSO counter (γ-secretase complex; 1,25µM) | Compound | inhibitor ratio in % of DMSO in 3 point DR (Notch signalling [1]; 10µM) | Confirmation screen (Notch signalling [1]; [5]) | inhibitor ratio in % of DMSO in 3 point DR (Notch signalling [1]; 25µM) | Confirmation screen (Notch signalling [1]; [6]) | inhibitor ratio in % of DMSO in 3 point DR (Notch signalling [1]; 1,25µM) | Primary screen at 10 µM (Notch reporter signal) (Notch signalling [2])
5 | 58.6 % of DMSO | 58.6 | 58.2 % of DMSO | 58.2 | 84.7 % of DMSO | O=C(Nc1sccc1C(=O)N1CCOCC1)C(Sc1ccccc1)c1ccccc1 (centres unmarked) [CBK268165] | 60.1 % of DMSO | 60.1 | 57.1 % of DMSO | 57.1 | 101.2 % of DMSO | 64.8 % of DMSO
6 | 45.9 % of DMSO | 45.9 | 37.5 % of DMSO | 37.5 | 59.5 % of DMSO | c1ccc2c(c1)CCN(c1nc3cc4c(cc3s1)OCCO4)C2 [CBK287498] | 38.9 % of DMSO | 38.9 | 27.1 % of DMSO | 27.1 | 48.5 % of DMSO | 36.8 % of DMSO
7 | 127.0 % of DMSO | 127.0 | 166.0 % of DMSO | 166.0 | 130.0 % of DMSO | O=C(Nc1ccc(O)c(-c2nc3ccccc3o2)c1)c1ccc(-c2ccc([N+](=O)[O-])cc2)o1 [CBK263439] | 110.7 % of DMSO | 110.7 | 101.9 % of DMSO | 101.9 | 103.9 % of DMSO | 63.7 % of DMSO
